Experimental data published in article PMC8196580, “Identification of Kaurane-Type Diterpenes as Inhibitors of Leishmania Pteridine Reductase I” (Molecules, 2021).
Read-outs that look alike come from different tables or passages of the source.

Tests used:
[1] = test system: L. major; test: ChEMBL dataset of pIC50 values against L. major used for the RF model (Table S1); assay type: cell-based, Leishmania major; further: call rule not given here
[2] = test system: L. major; parameters: method as in ChEMBL; details: ref ChEMBL, cited from earlier work
[3] = Active/Inactive class assigned to ChemBL structures for Random forest model construction (Table S1)
[4] = ChemBL structures with pIC50 values used for Random forest model construction (Table S1)
[5] = Active/Inactive class assigned to the ChEMBL pIC50 value for Random forest model construction, ref ChEMBL
[6] = ChemBL structures with pIC50 values used for Random forest model construction, L. major

COc1cc(OC)c2c(C)[n+](-c3ccc4ccccc4c3)c(C)cc2c1.F[B-](F)(F)F [CHEMBL479838]
Outcome [1, 3]: Active
pIC50 Value [2, 4]: 5.47

CC(=O)N1CCN(c2nnc(-c3ccc([N+](=O)[O-])s3)s2)CC1 [CHEMBL193546]
Outcome [1, 5]: Inactive
pIC50 Value [2, 6]: 4.31

CN(C)Cc1c(O)ccc2c(=O)c(-c3cnn(-c4ccccc4)c3)coc12 [CHEMBL1256931]
Outcome [1, 5]: Inactive
pIC50 Value [2, 6]: 4.13

COc1cc(/C=N/NC(N)=S)ccc1OCc1cn(-c2ccc(C(=O)O)cc2)nn1 [CHEMBL4173978]
Outcome [1, 5]: Active
pIC50 Value [2, 6]: 5.24

C[C@@H]([C@H]1CC[C@H]2[C@@H]3CC[C@H]4C(=O)C(NC=O)=CC[C@]4(C)[C@H]3CC[C@]12C)N(C)C [CHEMBL496489]
Outcome [1, 5]: Inactive
pIC50 Value [2, 6]: 4.65

c1csc(-c2nc3ccccc3[nH]2)c1 [CHEMBL201221]
Outcome [1, 3]: Active
pIC50 Value [2, 4]: 5.51

O=C(CCl)N(c1ccccc1)c1ccccc1 [CHEMBL1603760]
Outcome [1, 5]: Inactive
pIC50 Value [2, 6]: 4.39

COc1ccccc1C(=O)N/N=C/c1ccccn1 [CHEMBL2382029]
Outcome [1, 5]: Inactive
pIC50 Value [2, 6]: 4.22

c1ccc2[nH]c(-c3ccncc3)nc2c1 [CHEMBL379376]
Outcome [1, 3]: Active
pIC50 Value [2, 4]: 5.35

O=C(/C=C/c1ccc(-n2ccnc2)cc1)c1ccccc1F [CHEMBL571071]
Outcome [1, 3]: Active
pIC50 Value [2, 4]: 5.47

Nc1ccc(-c2c(-c3ccccc3)nc3ccccn23)cc1 [CHEMBL2151863]
Outcome [1, 5]: Inactive
pIC50 Value [2, 6]: 4.37

Oc1ccc(-c2nc3ccccc3[nH]2)cc1 [CHEMBL377740]
Outcome [1, 3]: Active
pIC50 Value [2, 4]: 5.36

Cl.O=[N+]([O-])c1ccc(-c2nnc(N3CCN(c4ccc(C5=NCCCN5)cc4)CC3)s2)o1 [CHEMBL1783211]
Outcome [1, 5]: Inactive
pIC50 Value [2, 6]: 3.70

O=[N+]([O-])c1ccc2nc(-c3ccccn3)[nH]c2c1 [CHEMBL380979]
Outcome [1, 3]: Active
pIC50 Value [2, 4]: 5.52

CN(C)c1nccn2c(-c3ccncc3)c(-c3ccccc3)nc12 [CHEMBL3634364]
Outcome [1, 5]: Inactive
pIC50 Value [2, 6]: 4.50

O=C(CCl)N1c2ccccc2Oc2ccc(C(F)(F)F)cc21 [CHEMBL3759243]
Outcome [1, 5]: Active
pIC50 Value [2, 6]: 5.02

CC1=C(C(=O)/C=C/c2ccc(Cl)cc2)C(c2ccccc2)NC(=O)N1C (stereo not shown) [CHEMBL3785670]
Outcome [1, 3]: Active
pIC50 Value [2, 4]: 5.77

C=C[C@H](/C=C\c1ccc(O)cc1)c1ccc(O)cc1 [CHEMBL451713]
Outcome [1, 5]: Inactive
pIC50 Value [2, 6]: 4.92

c1cncc(-c2nc3ccccc3[nH]2)c1 [CHEMBL83103]
Outcome [1, 3]: Active
pIC50 Value [2, 4]: 5.48

O=C(CCl)N1c2ccccc2COc2ccc(Cl)cc21 [CHEMBL3758404]
Outcome [1, 5]: Active
pIC50 Value [2, 6]: 5.14

O=C(/C=C/c1ccc(-n2ccnc2)cc1)c1c(Cl)cccc1Cl [CHEMBL571070]
Outcome [1, 3]: Active
pIC50 Value [2, 4]: 5.71

Cc1cccc2cc(C3CC(c4ccc(I)s4)=NN3)c(Cl)nc12 (stereo not shown) [CHEMBL2236134]
Outcome [1, 3]: Active
pIC50 Value [2, 4]: 5.77

CC(=O)Oc1ccc(-c2c(-c3ccccc3)nc3ccccn23)cc1 [CHEMBL2151860]
Outcome [1, 5]: Inactive
pIC50 Value [2, 6]: 4.80

NP(=O)(OCc1cccc([N+](=O)[O-])c1)N(CCCl)CCCl (stereo not shown) [CHEMBL1256964]
Outcome [1, 5]: Inactive
pIC50 Value [2, 6]: 4.52

COc1ccccc1C(=O)N/N=C/c1ccc(O)cc1O [CHEMBL2382048]
Outcome [1, 5]: Inactive
pIC50 Value [2, 6]: 4.05

COc1ccc(-c2nc3ccccn3c2-c2cccc([N+](=O)[O-])c2)cc1 [CHEMBL2151882]
Outcome [1, 5]: Inactive
pIC50 Value [2, 6]: 4.85

Fc1ccc(-c2nc3ccccc3[nH]2)cc1 [CHEMBL1596095]
Outcome [1, 3]: Active
pIC50 Value [2, 4]: 5.43

O=[N+]([O-])c1ccc(-c2nnc(N3CCN(c4ccccc4)CC3)s2)s1 [CHEMBL382933]
Outcome [1, 5]: Inactive
pIC50 Value [2, 6]: 3.98

Clc1ccc(-c2nc3ccccc3[nH]2)cc1 [CHEMBL473163]
Outcome [1, 3]: Active
pIC50 Value [2, 4]: 5.50

CNc1ccc(Nc2c3ccccc3nc3ccccc23)cc1 [CHEMBL415467]
Outcome [1, 3]: Active
pIC50 Value [2, 4]: 5.82

CN(C)c1nccn2c(I)c(-c3ccccc3)nc12 [CHEMBL3634358]
Outcome [1, 5]: Active
pIC50 Value [2, 6]: 5.17

COc1cccc2cc(C=O)cc(O)c12 [CHEMBL2071232]
Outcome [1, 5]: Inactive
pIC50 Value [2, 6]: 4.00

C=C[C@@]1(C)Cc2c(OC(C)=O)ccc(OC(C)=O)c2C[C@H]1C(=C)C [CHEMBL442439]
Outcome [1, 3]: Active
pIC50 Value [2, 4]: 5.37

Cc1cc(C2=NNC(c3cc4cccc(C)c4nc3Cl)C2)c(C)s1 (stereo not shown) [CHEMBL2235721]
Outcome [1, 3]: Active
pIC50 Value [2, 4]: 5.58

COc1ccccc1-c1nnc(-c2ccc(C(=O)N/N=C/c3ccc(C)cc3)cc2)o1 [CHEMBL4079056]
Outcome [1, 5]: Inactive
pIC50 Value [2, 6]: 4.53

Cc1ccc(N2NC(=O)/C(=C/c3cc4c(cc3Cl)OCO4)C2=O)cc1C [CHEMBL1256889]
Outcome [1, 5]: Inactive
pIC50 Value [2, 6]: 4.52

COc1cc(OC)c2c(C)[n+](-c3ccc(C(C)C)cc3C(C)C)c(C)cc2c1.F[B-](F)(F)F [CHEMBL519606]
Outcome [1, 3]: Active
pIC50 Value [2, 4]: 6.27

O=C(/C=C/c1ccc(O)cc1)c1ccccc1 [CHEMBL7747]
Outcome [1, 3]: Active
pIC50 Value [2, 4]: 5.40

COc1ccc(/C=N/NC(=O)c2ccccc2OC)cc1 [CHEMBL2382041]
Outcome [1, 5]: Inactive
pIC50 Value [2, 6]: 4.40

Cc1csc(C2=NNC(c3cc4cccc(C)c4nc3Cl)C2)c1 (stereo not shown) [CHEMBL2235719]
Outcome [1, 3]: Active
pIC50 Value [2, 4]: 5.66

O=C(/C=C/c1ccc(-n2ccnc2)cc1)c1c(F)cccc1F [CHEMBL570962]
Outcome [1, 3]: Active
pIC50 Value [2, 4]: 5.51

CCOC(=O)c1ccc(-c2c(-c3ccccc3)nc3ccccn23)cc1 [CHEMBL2151866]
Outcome [1, 5]: Active
pIC50 Value [2, 6]: 5.28

Cn1cc(/C=N/c2ccc(Cl)cc2)c2ccccc21 [CHEMBL2071555]
Outcome [1, 3]: Active
pIC50 Value [2, 4]: 5.67

CC1=CCC[C@@]2(C)CC3=C(C[C@@H]12)C(=O)C=CC3=O [CHEMBL255103]
Outcome [1, 5]: Inactive
pIC50 Value [2, 6]: 4.77

O=C(/C=C/c1ccc(-n2ccnc2)cc1)c1ccccc1 [CHEMBL571178]
Outcome [1, 3]: Active
pIC50 Value [2, 4]: 5.48

Cc1cccc2cc(/C=C/C(=O)c3ccsc3)c(Cl)nc12 [CHEMBL1940861]
Outcome [1, 3]: Active
pIC50 Value [2, 4]: 5.71

O=C(c1ccccc1)N1CCN(c2nnc(-c3ccc([N+](=O)[O-])s3)s2)CC1 [CHEMBL195362]
Outcome [1, 5]: Inactive
pIC50 Value [2, 6]: 4.60

O=[N+]([O-])c1ccc(-c2nnc(N3CCCCC3)s2)o1 [CHEMBL372172]
Outcome [1, 3]: Active
pIC50 Value [2, 4]: 5.49

Cc1cccc2cc(/C=C/C(=O)c3sccc3Cl)c(Cl)nc12 [CHEMBL1940866]
Outcome [1, 3]: Active
pIC50 Value [2, 4]: 5.65

CCC(C)n1ncn(-c2ccc(N3CCN(c4ccc(OCC5COC(Cn6cncn6)(c6ccc(Cl)cc6Cl)O5)cc4)CC3)cc2)c1=O (stereo not shown) [CHEMBL64391]
Outcome [1, 3]: Active
pIC50 Value [2, 4]: 5.70

CCCCNC(=N)c1ccc(N2CCN(c3nnc(-c4ccc([N+](=O)[O-])o4)s3)CC2)cc1.Cl [CHEMBL1783204]
Outcome [1, 5]: Inactive
pIC50 Value [2, 6]: 4.96

COc1cc(OC)c2c(C)[n+](-c3cccc4cc5ccccc5cc34)c(C)cc2c1.O=C([O-])C(F)(F)F [CHEMBL516450]
Outcome [1, 3]: Active
pIC50 Value [2, 4]: 5.73

O=C(c1ccc(Br)s1)N1CCN(c2nnc(-c3ccc([N+](=O)[O-])o3)s2)CC1 [CHEMBL458771]
Outcome [1, 5]: Inactive
pIC50 Value [2, 6]: 4.88

O=[N+]([O-])c1ccc2nc(-c3ccccc3[N+](=O)[O-])[nH]c2c1 [CHEMBL1481977]
Outcome [1, 3]: Active
pIC50 Value [2, 4]: 5.59

CCCN1CSC(=S)N(C(C)c2ccccc2)C1 (stereo not shown) [CHEMBL4290968]
Outcome [1, 5]: Inactive
pIC50 Value [2, 6]: 4.62

COc1ccccc1C(=O)N/N=C/c1cccnc1 [CHEMBL2382042]
Outcome [1, 3]: Active
pIC50 Value [2, 4]: 5.71
